In patent US11952365B2, “Anti-viral compounds” (Aligos Therapeutics, Inc., priority 2020, dated 2024):
Where two headings read alike, the source gives them in different places.

What was measured:
[1] = Cytotoxicity plates without OC43 virus (cell-titer-glo); format: cell-based, human; conditions: human; HeLa cells without OC43 virus, class symbols
Method in brief: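 HeLa cells seeded overnight, then treated with serially diluted compounds in 2% FBS EMEM, uninfected, in parallel with the OC43 antiviral plates. Incubated 6 days at 33 °C; viability read by CellTiter-Glo luminescence.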

HRV3C = HRV3C (Human rhinovirus 14, UniProt P03303); assay: HRV3C protease assay (duplex, SAMDI-MS); format: biochemical, HRV; conditions: 30 mins preincubation
Method in brief: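 Duplex format with 3CLpro; 30 min enzyme–compound preincubation, 30 min reaction with two peptide substrates, ambient temp. Stop: 0.5% formic acid, neutralized with 1% NaHCO3 (finals). Readout SAMDI-MS, product AUC over internal standard AUC; four-parameter IC50.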

[2] = tested on: human beta-coronavirus OC43; assay: microbe, parasite or virus in culture; format: cell-based; conditions: Betacoronavirus 1, OC43, HeLa, 144 h
human cathepsin L = biological target: T1, human cathepsin L (Homo sapiens, UniProt P07711); assay: cathepsin L assay; format: biochemical; conditions: 10 pM human cathepsin L, Z-FR-AMC 2 μM, class symbols
T1 construct: purchased R&D Systems
Method in brief: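 Human cathepsin L at 10 pM was preincubated 30 min with compound, then reaction started with Z-FR-AMC (2 μM final). Fluorescence (355/460 nm) read every 2 min for 30 min; IC50 from four-parameter curve fit.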

[3] = tested on: SARS-CoV-2-GHB-03021/2020; assay: SARS-CoV-2 Infection Model in Huh7 Cells; format: cell-based; conditions: Severe acute respiratory syndrome coronavirus 2, Huh-7, 96 h, SARS-CoV-2, day 4 p.i., MTS
3CLpro = 3CLpro (Severe acute respiratory syndrome coronavirus 2, UniProt P0DTD1); assay: SARS-CoV-2 3CLpro protease assay (duplex, SAMDI-MS); format: biochemical; design: For the duplex assay, 3CLpro and HRV3C was added; conditions: 3CLpro, 30 mins preincubation, read-out: SARS-Cov-2 IC50
in vitro [4] = conditions: African green monkey, VeroE6 + CP (CC50), Vero E6-eGFP cells with CP-100356, absence of virus, MTS
in vitro [5] = conditions: human
[6] = tested on: SARS-CoV-2-GHB-03021/2020; assay: microbe, parasite or virus in culture; format: cell-based; conditions: Severe acute respiratory syndrome coronavirus 2, Vero C1008, 96 h; read-out: VeroE6 + CP (EC50)
[7] = HRV3C, class symbols, read-out: HRV IC50
[8] = OC43 in HeLa cells, 6 days at 33° C., class symbols, read-out: EC50
[9] = HRV3C, bound, read-out: HRV IC50
[10] = OC43 in HeLa cells, 6 days at 33° C., bound, read-out: EC50

Row | SMILES | CC50 at 6 days [1] | IC50 (HRV3C; [7]) | EC50 [2, 8] | IC50 (human cathepsin L) | EC50 ([3]; class symbols) | IC50 (3CLpro; class symbols) | CC50 (in vitro [4]; numeric bounds) | CC50 (in vitro [5]) | EC50 [6] | IC50 (HRV3C; [9]) | CC50 (in vitro [4]; class symbols) | EC50 [2, 10] | EC50 ([3]; numeric bounds) | IC50 (3CLpro; bound) | IC50 (HRV3C; HRV IC50, HRV3C, bound) | EC50 [2]
1 | COc1cccc2[nH]c(C(=O)N3C[C@]4(C[C@H]3C(=O)NC(C=O)C[C@@H]3CCCNC3=O)CC4(F)F)cc12 (stereo partly drawn) [Compound 29, (3S,6S)-1,1-difluoro-5-(4-methoxy-1H-indole-2-carbonyl)-N-(1-oxo-3-((S)-2-oxopiperidin-3-yl)propan-2-yl)-5-azaspiro[2.4]heptane-6-carboxamide] | > 10 µM | 0.02 to 0.2 µM | 1 to 10 µM | 0.1 to 1 µM | 1 to 10 µM | 0.02 to 0.2 µM | > 100 µM | > 100 µM | 1 to 10 µM | – | – | – | – | – | – | –
2 | N#C[C@H](C[C@@H]1CCNC1=O)NC(=O)[C@@H]1[C@H]2CCC[C@H]2CN1C(=O)c1cc2c(Cl)ccc(Cl)c2[nH]1 [Compound 167, (1S,3aR,6aS)—N-[(1S)-1-cyano-2-[(3S)-2-oxopyrrolidin-3-yl]ethyl]-2-(4,7-dichloro-1H-indole-2-carbonyl)-hexahydro-1H-cyclopenta[c]pyrrole-1-carboxamide] | > 10 µM | – | 0.1 to 1 µM | ≥ 10 µM | < 1 µM | 0.2 to 2 µM | > 50 µM | > 10 µM | < 1 µM | > 10 µM | – | – | – | – | – | –
3 | O=C1NCC[C@H]1C[C@H](NC(=O)[C@@H]1[C@H]2CCC[C@H]2CN1C(=O)c1cc2c(Cl)ccc(OCc3ccccc3)c2[nH]1)C(=O)CO [Compound 128, (1S,3aR,6aS)-2-[7-(benzyloxy)-4-chloro-1H-indole-2-carbonyl]-N-[(2S)-4-hydroxy-3-oxo-1-[(3S)-2-oxopyrrolidin-3-yl]butan-2-yl]-hexahydro-1H-cyclopenta[c]pyrrole-1-carboxamide] | > 10 µM | – | < 0.1 µM | ≥ 10 µM | < 1 µM | 0.02 to 0.2 µM | – | > 10 µM | 1 to 10 µM | > 10 µM | > 10 µM | – | – | – | – | –
4 | O=C1NCC[C@H]1C[C@H](NC(=O)[C@@H]1[C@H]2CCC[C@H]2CN1C(=O)c1cc2c(Oc3ccccc3)cccc2[nH]1)C(=O)CO [Compound 123, (1S,3aR,6aS)—N-[(2S)-4-hydroxy-3-oxo-1-[(3S)-2-oxopyrrolidin-3-yl]butan-2-yl]-2-(4-phenoxy-1H-indole-2-carbonyl)-hexahydro-1H-cyclopenta[c]pyrrole-1-carboxamide] | > 10 µM | – | 0.1 to 1 µM | ≥ 10 µM | 1 to 10 µM | 0.02 to 0.2 µM | > 50 µM | > 50 µM | 1 to 10 µM | > 10 µM | – | – | – | – | – | –
5 | COc1cccc2[nH]c(C(=O)N3C[C@@H]4CCC[C@@H]4[C@H]3C(=O)N[C@@H](C[C@@H]3CCNC3=O)C(=O)C(=O)N(C)C)cc12 [Compound 110] | > 10 µM | – | – | ≥ 10 µM | – | – | > 50 µM | > 50 µM | > 50 µM | > 10 µM | – | > 10 µM | > 50 µM | > 10 µM | – | –
6 | CC(C)OCCNC(=O)C(=O)[C@H](C[C@@H]1CCNC1=O)NC(=O)[C@@H]1[C@H]2CCC[C@H]2CN1C(=O)c1cc2c(Cl)cc(Cl)cc2[nH]1 [Compound 173] | > 10 µM | – | 0.1 to 1 µM | ≥ 10 µM | 1 to 10 µM | 0.02 to 0.2 µM | > 50 µM | 1 to 10 µM | < 1 µM | > 10 µM | – | – | – | – | – | –
7 | O=C1NCC[C@H]1C[C@H](NC(=O)[C@@H]1[C@H]2CCC[C@H]2CN1C(=O)c1ccc(-c2ccccc2)[nH]1)C(=O)CO [Compound 144, (1S,3aR,6aS)—N-[(2S)-4-hydroxy-3-oxo-1-[(3S)-2-oxopyrrolidin-3-yl]butan-2-yl]-2-(5-phenyl-1H-pyrrole-2-carbonyl)-hexahydro-1H-cyclopenta[c]pyrrole-1-carboxamide] | > 10 µM | 2 to 20 µM | 0.1 to 1 µM | ≥ 10 µM | 1 to 10 µM | 0.02 to 0.2 µM | > 50 µM | > 10 µM | < 1 µM | – | – | – | – | – | – | –
8 | COc1cccc2[nH]c(C(=O)N3C[C@@H]4CCC[C@@H]4[C@H]3C(=O)NC(C[C@@H]3CCCNC3=O)C(=O)C(=O)NC3CC3)cc12 (stereo partly drawn) [Compound 55, 3-{[(1S,3aR,6aS)-2-(4-methoxy-1H-indole-2-carbonyl)-hexahydro-1H-cyclopenta[c]pyrrol-1-yl]formamido}-N-cyclopropyl-2-oxo-4-[(3S)-2-oxopiperidin-3-yl]butanamide] | > 10 µM | 0.02 to 0.2 µM | 0.1 to 1 µM | ≥ 10 µM | 1 to 10 µM | < 0.02 µM | > 100 µM | > 100 µM | 1 to 10 µM | – | – | – | – | – | – | –
9 | COc1cccc2[nH]c(C(=O)N3C[C@]4(C[C@H]3C(=O)NC(C[C@@H]3CCCNC3=O)C(=O)C(=O)NCc3ccccc3)CC4(F)F)cc12 (stereo partly drawn) [Compound 33, N-benzyl-3-{[(3S,6S)-1,1-difluoro-5-(4-methoxy-1H-indole-2-carbonyl)-5-azaspiro[2.4]heptan-6-yl]formamido}-2-oxo-4-[(3S)-2-oxopiperidin-3-yl]butanamide] | > 10 µM | 0.2 to 2 µM | 0.1 to 1 µM | 0.1 to 1 µM | 1 to 10 µM | 0.02 to 0.2 µM | > 100 µM | > 100 µM | < 1 µM | – | – | – | – | – | – | –
10 | COc1cccc2[nH]c(C(=O)N3C[C@]4(C[C@H]3C(=O)N[C@@H](C[C@@H]3CCNC3=O)C(=O)CO)CC4(F)F)cc12 [Compound 39] | > 10 µM | – | 0.1 to 1 µM | ≥ 10 µM | 1 to 10 µM | 0.02 to 0.2 µM | > 100 µM | > 100 µM | 1 to 10 µM | > 10 µM | – | – | – | – | – | –
11 | O=C1NCC[C@H]1C[C@H](NC(=O)[C@@H]1[C@H]2CCC[C@H]2CN1C(=O)c1cc2c(Cl)c(F)cc(F)c2[nH]1)C(=O)CO [Compound 143, (1S,3aR,6aS)-2-(4-chloro-5,7-difluoro-1H-indole-2-carbonyl)-N-[(2S)-4-hydroxy-3-oxo-1-[(3S)-2-oxopyrrolidin-3-yl]butan-2-yl]-hexahydro-1H-cyclopenta[c]pyrrole-1-carboxamide] | > 10 µM | – | – | ≥ 10 µM | < 1 µM | 0.02 to 0.2 µM | > 50 µM | > 10 µM | < 1 µM | – | – | – | – | – | > 10 µM | 0.1 to 1 µM
12 | COc1cccc2[nH]c(C(=O)N3C[C@@H]4CCC[C@@H]4[C@H]3C(=O)N[C@@H](C[C@@H]3CCNC3=O)C(=O)C(=O)NCCO)cc12 [Compound 107, (1S, 3aR, 6aS)—N—((S)-4-((2-hydroxyethyl)amino)-3,4-dioxo-1-((S)-2-oxopyrrolidin-3-yl)butan-2-yl)-2-(4-methoxy-1H-indole-2-carbonyl)octahydrocyclopenta[c]pyrrole-1-carboxamide] | > 10 µM | 0.2 to 2 µM | – | ≥ 10 µM | 10 to 100 µM | < 0.02 µM | > 100 µM | > 50 µM | 10 to 100 µM | – | – | > 10 µM | – | – | – | –
13 | COc1cccc2[nH]c(C(=O)N3C[C@@H]4CCC[C@@H]4[C@H]3C(=O)N[C@@H](C[C@@H]3CCCNC3=O)C(=O)CO)cc12 [Compound 41, (1S,3aR,6aS)—N-[(2S)-4-hydroxy-3-oxo-1-[(3S)-2-oxopiperidin-3-yl]butan-2-yl]-2-(4-methoxy-1H-indole-2-carbonyl)-hexahydro-1H-cyclopenta[c]pyrrole-1-carboxamide] | > 10 µM | – | < 0.1 µM | ≥ 10 µM | 1 to 10 µM | – | > 100 µM | > 100 µM | 1 to 10 µM | > 10 µM | – | – | – | – | – | –
